Columns and labels:
rats [1] = assay: Passive avoidance in rats, in vivo test for learning and memory (MK-801 amnesia); design: species or system rat; details: MK-801 0.1 mg/kg pretreatment, 24 hours after shock, p<0.001
Method: Passive Avoidance in Rats, an In vivo Test for Learning and Memory
The test was performed as previously described (Zhang, H.-T., Crissman, A. M., Dorairaj, N. R., Chandler, L. J., and O'Donnell, J. M., Neuropsychopharmacology, 2000, 23, 198–204.). The apparatus (Model E10-16SC, Coulbourn Instruments, Allentown, Pa.) consisted of a two-compartment chamber with an illuminated compartment connected to a darkened compartment by a guillotine door. The floor of the darkened compartment consisted of stainless steel rods through which an electric foot-shock could be delivered from a constant current source. All experimental groups were first habituated to the apparatus the day before the start of the experiment. During the training, the rat (Male Spraque-Dawley (Harlan) weighing 250 to 350 g) was placed in the illuminated compartment facing away from the closed guillotine door for 1 minute before the door was raised. The latency for entering the darkened compartment was recorded. After the rat entered the darkened compartment, the door was closed and a 0.5 mA electric shock was administered for 3 seconds. […] The latency for entering the darkened compartment was recorded for up to 180 seconds, at which time the trial was terminated.
(§1) All data were analyzed by analyses of variance (ANOVA); individual comparisons were made using Kewman-Keuls tests. […]

rats [2] = assay: Radial arm maze task in rats, in vivo test for learning and memory (MK-801 amnesia); design: species or system rat; details: MK-801 0.1 mg/kg, i.p., p<0.01
Method: Radial Arm Maze Task in Rats, an In vivo Test for Learning and Memory
The test was performed as previously described (Zhang, H.-T., Crissman, A. M., Dorairaj, N. R., Chandler, L. J., and O'Donnell, J. M., Neuropsychopharmacalogy, 2000, 23, 198–204.). Five days after initial housing, rats (male Spraque-Dawley (Harlan) weighing 250 to 350 g) were placed in the eight-arm radial maze (each arm was 60×10×12 cm high; the maze was elevated 70 cm above the floor) for acclimation for two days. Rats were then placed individually in the center of the maze for 5 minutes with food pellets placed close to the food wells, and then, the next day, in the wells at the end of the arms; 2 sessions a day were conducted. Next, four randomly selected arms were then baited with one pellet of food each. […] Four parameters were recorded: […]) working memory errors, i.e., entries into baited arms that had already been visited during the same trial; 2) reference memory errors, i.e., entries into unbaited arms; 3) total arm entries; and 4) the test duration (seconds), i.e., the time spent in the collection of all the pellets in the maze. […]
as §1

Structure (SMILES): C[C@]12N[C@H](Cc3ccccc31)c1ccccc12 [MK-801]
- Latency for entering the darkened compartment compared to the vehicle (rats [1]): markedly reduced
- Frequencies of working and reference memory errors compared to control (rats [2]): increased

Reference: patent US7205320B2, “Phosphodiesterase 4 inhibitors” (Memory Pharmaceuticals Corp., priority 2001, dated 2007)
